Measured values published in patent US12448400B2, “KRAS G12D modulating compounds” (priority 2023, dated 2025).

Legend:
[1] = Dog oral pharmacokinetics; parameters: species or system Male Beagle dogs; details: male, Beagle, in vivo
Method: Dog Oral Pharmacokinetics
Test compounds were formulated in solution formulations (10% w/v % Sulfobutylether-p-cyclodextrin; 90% w/v % 50 mM Citrate Buffer) and administered orally at 5 or 10 mg-eq./kg to a group of three Male Beagle dogs. The animals were fasted overnight prior to dose administration and up to four hours after dosing. The test articles were administrated by oral gavage at a dose volume of 5 ml/kg.
(§1) Blood samples were collected into K2EDTA tubes at predose and 0.25, 0.5, 1, 2, 4, 6, 8, 12, 24 hours post dose, and once daily collection post 24 hours up to 168 hours. Whole blood were stored on wet ice and processed to plasma by centrifugation (3500 rpm for 10 minutes at 5° C.) within 1 hour of collection. Plasma samples were placed in Micronic 96 well tubes and stored at −80° C. until transferred. Plasma concentration of the test compounds was determined by LC-MS/MS. Pharmacokinetic parameters were estimated using non-compartment model analysis. The maximum observed concentration (Cmax) and area under the curve from time of dosing to last measured concentration (AUClast) were calculated and reported.

[2] = Mouse oral cassette pharmacokinetics; type: in vivo, male CD-1 mice; details: male, CD-1, mouse, in vivo, po, 30 mg/kg
In short: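 Male CD-1 mice (n=4) dosed orally by gavage at 30 mg-eq./kg per compound as cassettes of 1–3 compounds in 10 w/v % Captisol/50 mM citrate. Plasma sampled 0.5–24 h post dose, analysed by LC-MS/MS; Cmax and AUClast from non-compartmental analysis.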

GP2D (KRAS G12D) cells = experiment: 2D cell viability assay (CellTiter-Glo); type: cell-based; details: 96 h; GP2D cells, 4 days, CellTiter-Glo luminescence; read-out: G12D 2D EC50
In short: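 GP2D (KRAS G12D) cells, 1000/well in RPMI + 10% FBS, were plated onto compound (1:3 DMSO series) and grown 4 days at 37 °C, 5% CO2 in 2D. CellTiter-Glo luminescence was read; EC50 is the concentration giving 50% signal decrease, from sigmoidal fit.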

[3] = Rat oral pharmacokinetics; parameters: species or system Male Sprague Dawley rats; details: male, Sprague Dawley, in vivo
Method: Rat Oral Pharmacokinetics
Test compounds were formulated in solution formulations (10 w/v % Sulfobutylether-p-cyclodextrin; 90% w/v % 50 mM Citrate Buffer) and administered orally to a group of three Male Sprague Dawley rats. The animals were fasted overnight prior to dose administration and up to four hours after dosing. The test articles were administrated by oral gavage at a dose volume of 5 mL-eq/kg.
as §1, with “collected” for “collected into K2EDTA tubes”, “12, 24, 48 and 72” for “12, 24”, “post dose into K2EDTA tubes” for “post dose,”, “and” for “and once daily collection post 24 hours up to 168 hours. Whole blood were”, “ice until processed. Whole blood was” for “ice and”, “within 30 minutes” for “within 1 hour”

Row | SMILES | Dog Parent % F ([1]; 10 mg/kg) | Dog Parent AUC ([1]; 10 mg/kg) | Mouse Parent AUC [2] | EC50 (GP2D (KRAS G12D) cells) | Rat Parent % F ([3]; 15 mg/kg) | Rat Parent AUC ([3]; 15 mg/kg) | Dog Parent AUC (nM * h) ([1]; 10 mg/kg) | Mouse Parent AUC (nM * h) [2] | Dog Parent % F ([1]; 5 mg/kg) | Dog Parent AUC (nM * h) ([1]; 5 mg/kg) | Rat Parent % F ([3]; 7.5 mg/kg) | Rat Parent AUC ([3]; 7.5 mg/kg) | Dog Parent AUC ([1]; 5 mg/kg)
1 | C#Cc1c(F)ccc2cc(O)cc(-c3nc4c5c(nc(OC[C@@]67CCCN6C[C@H](F)C7)nc5c3F)N3C[C@H]5CC[C@H](N5)[C@H]3CCC4)c12 [Comp. Ex. 75, reference compound] | 0.6% | 71 nM·h | 51 nM·h |  |  |  |  |  |  |  |  |  | 
2 | Cc1oc(=O)oc1CN1[C@@H]2CC[C@H]1[C@H]1CCCc3nc(-c4cc(O)cc5ccc(F)c(OC(F)(F)F)c45)c(F)c4nc(OC[C@@]56CCCN5C[C@H](F)C6)nc(c34)N1C2 [Example 18, 4-(((6aR,7S,10R)-1-fluoro-2-(7-fluoro-3-hydroxy-8-(trifluoromethoxy)naphthalen-1-yl)-13-(((2R,7aS)-2-fluorotetrahydro-1H-pyrrolizin-7a(5H)-yl)methoxy)-5,6,6a,7,8,9,10,11-octahydro-4H-3,11a,12,14,15-pentaaza-7,10-methanocyclohepta[4,5]cycloocta[1,2,3-de]naphthalen-15-yl)methyl)-5-methyl-1,3-dioxol-2-one] | 12% | 600 nM·h |  |  |  |  |  |  |  |  |  |  | 
3 | C#Cc1c(F)ccc2cc(N)cc(-c3nc4c5c(nc(OC[C@@]67CCCN6C[C@H](F)C7)nc5c3F)N3C[C@H]5CC[C@@H]([C@H]3CCC4)N5Cc3oc(=O)oc3C)c12 [Example 33, 4-(((6aR,7S,10R)-2-(3-amino-8-ethynyl-7-fluoronaphthalen-1-yl)-1-fluoro-13-(((2R,7aS)-2-fluorotetrahydro-1H-pyrrolizin-7a(5H)-yl)methoxy)-5,6,6a,7,8,9,10,11-octahydro-4H-3,11a,12,14,15-pentaaza-7,10-methanocyclohepta[4,5]cycloocta[1,2,3-de]naphthalen-15-yl)methyl)-5-methyl-1,3-dioxol-2-one] | 11% |  |  | 0.71 nM | 3.3% | 180 nM·h | 2,200 nM * h | 1,500 nM * h |  |  |  |  | 
4 | C#Cc1c(F)ccc2cc(N)cc(-c3nc4c5c(nc(OC[C@@]67CCCN6C[C@H](F)C7)nc5c3F)N3C[C@H]5CC[C@@H]([C@H]3CCC4)N5Cc3oc(=O)oc3CC)c12 [Example 34, 4-(((6aR,7S,10R)-2-(3-amino-8-ethynyl-7-fluoronaphthalen-1-yl)-1-fluoro-13-(((2R,7aS)-2-fluorotetrahydro-1H-pyrrolizin-7a(5H)-yl)methoxy)-5,6,6a,7,8,9,10,11-octahydro-4H-3,11a,12,14,15-pentaaza-7,10-methanocyclohepta[4,5]cycloocta[1,2,3-de]naphthalen-15-yl)methyl)-5-ethyl-1,3-dioxol-2-one] |  |  |  | 0.4 nM | 5% | 270 nM·h |  | 1,300 nM * h | 12% | 1,200 nM * h |  |  | 
5 | C#Cc1c(F)ccc2cc(O)cc(-c3nc4c5c(nc(OC[C@@]67CCCN6[C@H](COC(C(F)(F)F)(C(F)(F)F)C(F)(F)F)CC7)nc5c3F)N3C[C@H]5CC[C@@H]([C@H]3CCC4)N5Cc3oc(=O)oc3C)c12 [Example 38, 4-(((6aR,7S,10R)-2-(8-ethynyl-7-fluoro-3-hydroxynaphthalen-1-yl)-1-fluoro-13-(((3S,7aS)-3-(((1,1,1,3,3,3-hexafluoro-2-(trifluoromethyl)propan-2-yl)oxy)methyl)tetrahydro-1H-pyrrolizin-7a(5H)-yl)methoxy)-5,6,6a,7,8,9,10,11-octahydro-4H-3,11a,12,14,15-pentaaza-7,10-methanocyclohepta[4,5]cycloocta[1,2,3-de]naphthalen-15-yl)methyl)-5-methyl-1,3-dioxol-2-one] |  |  |  | 0.25 nM |  |  |  | 2,100 nM * h | 4.2% |  | 3% | 280 nM·h | 210 nM·h
